Experimental data reported in ChEMBL document CHEMBL5291721, “A preclinical secondary pharmacology resource illuminates target-adverse drug reaction associations of marketed drugs” (Nat Commun, 2023).

Experiments:
[1] = molecular target: T1, Type-1 angiotensin II receptor (Homo sapiens, UniProt P30556)
T1 sequence (P30556 whole entry): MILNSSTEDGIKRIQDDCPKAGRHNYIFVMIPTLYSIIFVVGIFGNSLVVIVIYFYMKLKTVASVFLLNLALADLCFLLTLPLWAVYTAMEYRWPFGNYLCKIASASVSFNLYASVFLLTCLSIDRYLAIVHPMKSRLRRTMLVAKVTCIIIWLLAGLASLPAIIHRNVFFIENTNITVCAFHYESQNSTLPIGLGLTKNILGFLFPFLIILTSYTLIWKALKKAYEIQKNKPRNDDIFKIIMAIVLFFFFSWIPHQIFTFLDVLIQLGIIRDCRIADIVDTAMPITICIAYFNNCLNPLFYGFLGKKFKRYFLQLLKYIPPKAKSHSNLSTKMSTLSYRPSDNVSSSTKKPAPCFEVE

[2] = molecular target: T2, Gastrin/cholecystokinin type B receptor (Homo sapiens, UniProt P32239)
T2 sequence (P32239 whole entry): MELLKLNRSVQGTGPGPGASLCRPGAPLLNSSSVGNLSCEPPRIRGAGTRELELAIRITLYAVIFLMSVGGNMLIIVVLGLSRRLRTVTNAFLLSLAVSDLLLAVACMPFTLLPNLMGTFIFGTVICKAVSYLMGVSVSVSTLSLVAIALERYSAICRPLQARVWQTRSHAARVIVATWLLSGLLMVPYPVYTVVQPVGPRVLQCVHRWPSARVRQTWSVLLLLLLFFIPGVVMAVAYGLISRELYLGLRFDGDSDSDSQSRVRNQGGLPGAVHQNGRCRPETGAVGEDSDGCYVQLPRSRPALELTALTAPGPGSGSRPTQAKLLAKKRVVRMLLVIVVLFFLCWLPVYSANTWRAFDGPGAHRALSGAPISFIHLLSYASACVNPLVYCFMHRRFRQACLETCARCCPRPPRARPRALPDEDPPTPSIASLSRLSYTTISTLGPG

Melanocortin receptor 3 = Melanocortin receptor 3 (Homo sapiens, UniProt P41968)
Sequence of Melanocortin receptor 3 (P41968 whole entry): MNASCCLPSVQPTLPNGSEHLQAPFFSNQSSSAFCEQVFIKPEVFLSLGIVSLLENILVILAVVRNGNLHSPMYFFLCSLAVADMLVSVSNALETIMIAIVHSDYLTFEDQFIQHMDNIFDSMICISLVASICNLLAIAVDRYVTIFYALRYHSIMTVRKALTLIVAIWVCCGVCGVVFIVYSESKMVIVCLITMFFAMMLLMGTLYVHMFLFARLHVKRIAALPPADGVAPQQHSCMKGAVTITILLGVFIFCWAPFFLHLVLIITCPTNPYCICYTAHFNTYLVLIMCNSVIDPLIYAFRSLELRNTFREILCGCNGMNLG

[3] = molecular target: Sodium-dependent dopamine transporter (Homo sapiens, UniProt Q01959)
Sequence of Sodium-dependent dopamine transporter (Q01959 whole entry): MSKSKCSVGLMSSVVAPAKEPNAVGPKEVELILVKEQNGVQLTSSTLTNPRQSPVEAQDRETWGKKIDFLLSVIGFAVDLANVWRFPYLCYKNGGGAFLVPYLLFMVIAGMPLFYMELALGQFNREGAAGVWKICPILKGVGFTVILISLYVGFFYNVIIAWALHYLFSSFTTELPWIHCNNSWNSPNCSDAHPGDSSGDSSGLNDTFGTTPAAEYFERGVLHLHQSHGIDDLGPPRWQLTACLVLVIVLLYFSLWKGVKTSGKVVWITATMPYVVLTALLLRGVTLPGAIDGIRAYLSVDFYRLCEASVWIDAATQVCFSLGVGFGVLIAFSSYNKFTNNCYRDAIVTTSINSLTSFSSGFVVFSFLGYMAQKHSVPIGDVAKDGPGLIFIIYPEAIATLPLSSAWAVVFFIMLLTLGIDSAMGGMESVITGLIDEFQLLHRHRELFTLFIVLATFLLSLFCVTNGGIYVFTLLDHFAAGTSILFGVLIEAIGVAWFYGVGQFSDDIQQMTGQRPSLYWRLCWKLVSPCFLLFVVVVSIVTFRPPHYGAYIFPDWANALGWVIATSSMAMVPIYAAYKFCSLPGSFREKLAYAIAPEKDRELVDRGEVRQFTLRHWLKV

[4] = molecular target: Sodium-dependent serotonin transporter (Homo sapiens, UniProt P31645)
Sequence of Sodium-dependent serotonin transporter (P31645 whole entry): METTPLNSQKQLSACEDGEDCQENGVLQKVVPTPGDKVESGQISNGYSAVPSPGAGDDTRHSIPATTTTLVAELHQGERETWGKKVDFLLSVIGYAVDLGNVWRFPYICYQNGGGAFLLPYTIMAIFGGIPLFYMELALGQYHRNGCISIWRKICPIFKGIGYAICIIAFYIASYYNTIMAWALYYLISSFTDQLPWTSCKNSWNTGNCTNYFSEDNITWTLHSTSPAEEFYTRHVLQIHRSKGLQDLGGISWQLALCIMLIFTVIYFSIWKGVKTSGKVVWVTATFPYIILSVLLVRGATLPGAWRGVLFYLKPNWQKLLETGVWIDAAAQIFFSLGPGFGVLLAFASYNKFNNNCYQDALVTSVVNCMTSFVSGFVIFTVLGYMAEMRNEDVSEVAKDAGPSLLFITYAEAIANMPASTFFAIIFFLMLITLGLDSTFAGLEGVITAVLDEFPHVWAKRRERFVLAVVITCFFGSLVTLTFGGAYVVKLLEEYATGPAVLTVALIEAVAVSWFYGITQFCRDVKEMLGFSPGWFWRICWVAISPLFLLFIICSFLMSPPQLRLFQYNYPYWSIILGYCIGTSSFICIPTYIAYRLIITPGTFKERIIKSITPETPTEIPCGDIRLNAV

Glucocorticoid receptor = molecular target: T3, Glucocorticoid receptor (Homo sapiens, UniProt P04150)
T3 sequence (P04150 whole entry): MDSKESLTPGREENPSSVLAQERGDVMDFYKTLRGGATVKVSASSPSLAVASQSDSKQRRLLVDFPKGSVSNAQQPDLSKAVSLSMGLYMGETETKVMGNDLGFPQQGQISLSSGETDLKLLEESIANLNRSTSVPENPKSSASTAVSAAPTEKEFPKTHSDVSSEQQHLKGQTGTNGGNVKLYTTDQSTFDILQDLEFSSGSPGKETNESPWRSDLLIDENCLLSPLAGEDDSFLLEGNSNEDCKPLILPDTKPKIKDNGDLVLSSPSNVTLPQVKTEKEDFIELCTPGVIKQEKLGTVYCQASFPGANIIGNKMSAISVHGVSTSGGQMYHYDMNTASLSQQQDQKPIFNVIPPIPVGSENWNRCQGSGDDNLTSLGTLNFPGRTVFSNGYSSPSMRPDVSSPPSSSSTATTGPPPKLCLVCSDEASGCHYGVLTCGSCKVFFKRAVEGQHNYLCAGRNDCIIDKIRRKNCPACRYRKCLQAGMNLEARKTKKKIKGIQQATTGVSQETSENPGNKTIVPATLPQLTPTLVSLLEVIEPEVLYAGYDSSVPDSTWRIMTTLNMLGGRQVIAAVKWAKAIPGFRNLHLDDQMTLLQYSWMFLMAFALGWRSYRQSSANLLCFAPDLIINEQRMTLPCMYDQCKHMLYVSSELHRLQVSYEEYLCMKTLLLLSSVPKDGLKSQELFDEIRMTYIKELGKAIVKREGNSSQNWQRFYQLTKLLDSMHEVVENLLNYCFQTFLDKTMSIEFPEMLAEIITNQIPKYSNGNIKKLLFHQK

Progesterone receptor = molecular target: T4, Progesterone receptor (Homo sapiens, UniProt P06401); assay type: functional
T4 sequence (P06401 whole entry): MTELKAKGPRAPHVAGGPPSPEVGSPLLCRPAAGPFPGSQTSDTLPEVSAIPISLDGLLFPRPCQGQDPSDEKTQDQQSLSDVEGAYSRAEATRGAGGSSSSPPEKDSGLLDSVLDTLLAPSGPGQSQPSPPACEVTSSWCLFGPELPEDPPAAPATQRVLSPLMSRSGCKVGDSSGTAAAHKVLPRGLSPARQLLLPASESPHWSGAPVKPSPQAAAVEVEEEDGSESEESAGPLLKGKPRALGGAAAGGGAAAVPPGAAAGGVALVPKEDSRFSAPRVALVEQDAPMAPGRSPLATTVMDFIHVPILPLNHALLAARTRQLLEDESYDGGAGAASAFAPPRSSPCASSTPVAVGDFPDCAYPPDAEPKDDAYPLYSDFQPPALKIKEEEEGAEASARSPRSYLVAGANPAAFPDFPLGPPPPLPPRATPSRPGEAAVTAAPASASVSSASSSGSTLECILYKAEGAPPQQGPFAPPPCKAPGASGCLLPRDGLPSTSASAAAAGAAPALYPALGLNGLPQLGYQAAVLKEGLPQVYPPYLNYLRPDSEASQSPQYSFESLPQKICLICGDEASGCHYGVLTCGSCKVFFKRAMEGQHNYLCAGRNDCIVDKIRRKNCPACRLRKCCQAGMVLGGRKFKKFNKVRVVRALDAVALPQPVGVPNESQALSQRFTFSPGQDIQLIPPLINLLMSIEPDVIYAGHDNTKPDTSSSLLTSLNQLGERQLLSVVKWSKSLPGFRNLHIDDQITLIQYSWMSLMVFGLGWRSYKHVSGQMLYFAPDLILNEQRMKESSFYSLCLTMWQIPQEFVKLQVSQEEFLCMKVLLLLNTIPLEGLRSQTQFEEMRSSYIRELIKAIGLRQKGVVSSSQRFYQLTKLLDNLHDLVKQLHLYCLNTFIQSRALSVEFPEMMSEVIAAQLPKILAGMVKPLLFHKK
Further: assay procedure not described here.

| Compound | AC50 [1] [µM] | AC50 [2] [µM] | AC50 (Melanocortin receptor 3) [µM] | AC50 [3] [µM] | AC50 [4] [µM] | AC50 (Glucocorticoid receptor) [µM] | AC50 (Progesterone receptor) [µM] |
| --- | --- | --- | --- | --- | --- | --- | --- |
| COc1ccc2c3c1O[C@H]1C(=O)CC[C@H]4[C@@H](C2)N(C)CC[C@]314 [HYDROCODONE] | > 30 | > 30 | > 30 | > 10 | > 10 |  |  |
| C[C@@H](Cc1ccccc1)N(C)Cc1ccccc1 [BENZPHETAMINE] | > 30 |  | > 10 | 9.9 | 0.075 | > 10 | > 10 |
| COc1ccc(-n2nc(C(N)=O)c3c2C(=O)N(c2ccc(N4CCCCC4=O)cc2)CC3)cc1 [APIXABAN] | > 30 | > 30 | > 30 | > 30 | > 30 |  | > 30 |
| CCOC(=O)O[C@]1(C(=O)COC(=O)CC)CC[C@H]2[C@@H]3CCC4=CC(=O)C=C[C@]4(C)[C@H]3[C@@H](O)C[C@@]21C [PREDNICARBATE] | > 10 |  | > 10 | > 10 | > 10 | 0.017 | 1.3 |
| CN(C)CCOC(=O)C(c1ccccc1)C1(O)CCCC1 (stereo not given) [CYCLOPENTOLATE] | > 10 |  | > 10 | > 30 | > 30 | > 10 | > 10 |
| O=C(C[S+]([O-])Cc1ccco1)NC/C=C\COc1cc(CN2CCCCC2)ccn1 (stereo not given) [LAFUTIDINE] | > 10 |  | > 10 | > 10 | > 10 | > 10 | > 10 |
| CCN(CC)C(C)C(=O)c1ccccc1 (stereo not given) [DIETHYLPROPION] | > 30 | > 30 | > 30 | > 30 | > 30 |  |  |
| CCC(NC(C)C)C(O)c1ccc(O)c(O)c1 (stereo not given) [ISOETHARINE] | > 30 | > 30 | > 30 | 19.6 | > 30 |  | > 30 |
| CC(C(=O)O)c1ccc(C(=O)c2ccccc2)s1 (stereo not given) [TIAPROFENIC ACID] | > 10 |  | > 10 | > 10 | > 10 |  | > 10 |
| CCC(=O)[C@@]1(C)[C@H](C)C[C@H]2[C@@H]3CCC4=CC(=O)C=C[C@]4(C)[C@H]3[C@@H](O)C[C@@]21C [RIMEXOLONE] | > 10 |  | > 10 | > 10 | > 10 | 0.01 | 0.0032 |
| CC(=O)OCC1=C(C(=O)O)N2C(=O)[C@@H](NC(=O)CSc3ccncc3)[C@H]2SC1 [CEPHAPIRIN] | > 10 |  | > 10 | > 10 | > 10 | > 30 | > 30 |
| Nc1nc(Cl)nc2c1ncn2[C@@H]1O[C@H](CO)[C@@H](O)[C@@H]1F [CLOFARABINE] | > 30 | > 30 | > 30 | > 30 | > 30 |  | > 30 |
| CCCCOC(=O)C(=O)Nc1cccc(-c2nnn[nH]2)c1 [TAZANOLAST] | > 30 | > 30 | > 30 | > 30 | > 30 |  | > 30 |
